What is called EC50 is the midpoint of the concentration-response curve.

We go through five molecules from article PMC10483858 (Molecular Cancer, 2023).

In assay [1] the test system is hPD-1/mPD-L1 immune checkpoint (Jurkat-ECs with B16-F10/TCRAct cells). Conditions: ref [12]; cited from earlier work.
Experimental: To evaluate the bioactivity of the pAC65 peptide, cell-based immune checkpoint blockade assays, T-cell activation (TCA) assay, and a viability assay were performed.
Assay [2] relates to hPD-1/hPD-L1 immune checkpoint (Jurkat-ECs with CHO/TCRAct/PD-L1 cells). Nature of the assay: Immune checkpoint blockade (ICB) assay, hPD-1/hPD-L1 setup. Type of assay: cell-based, human. Conditions: for blockade of hPD-1/hPD-L1, restored activation of Jurkat-ECs (in words): 24-hour incubation, in parallel to hPD-1/mPD-L1 assay, Fig. 2C. The protocol:
(§1) The peptide was tested along with three therapeutic antibodies, atezolizumab, avelumab, and durvalumab.
(§2) Data points represent mean ± SD values from 4–6 independent experiments. […] Triton X-100-treated cells and cells without the addition of a Redox Dye were used as baseline controls. […] In the assay, three antibodies (atezo. – atezolizumab, ave. – avelumab, durva. – durvalumab) and the peptide pAC65 were used. […] The graphs show fractions of positive cells and represent cumulative data from 3–4 donors.
These cell lines were cultured in RPMI 1640 medium (Biowest) supplemented with 10% fetal bovine serum (FBS, Biowest) and […] L-glutamine (Biowest). The selection antibiotics: G418 (250 μg/mL, InvivoGen) and Hygromycin B Gold (50 μg/mL, InvivoGen) were also added to the culture medium as per application.
The assay was performed according to the manufacturer’s protocol (Promega). […] The dilutions of monoclonal antibodies were prepared in the assay buffer. Followed by a 6-hour (routinely) or 24-hour (for testing bioactivity in parallel to the hPD-1/mPD-L1 ICB assay) incubation at 37°C and 5% CO2, and an additional 20 min of incubation with the luminescence reagent (Bio-Glo™ Luciferase Assay System, Promega) at room temperature, activation of Jurkat ECs, reflected by luciferase activity, was monitored by luminescence measurements on a Spark microplate reader (Tecan). […] Data points represent mean ± SD values from four to eight independent experiments. EC50 values as half-maximal effective concentrations were calculated from the Hill curve fitting to the experimental data using Origin Pro 2020 software (OriginLab).

Assay [3] relates to PD-L1/CD80 and PD-1/PD-L1 pathways. Conditions: ref [14]; cited from earlier work.
The test system of assay [4] is hPD-1/mPD-L1 immune checkpoint (Jurkat-ECs with B16-F10/TCRAct cells). Kind of assay: Immune checkpoint blockade (ICB) assay, hPD-1/mPD-L1 setup. Conditions: B16-F10/TCRAct cells treated with 20 ng/ml mouse IFN-γ for 48 h; 24 h co-culture, Fig. 2D; three independent experiments. Type of assay: cell-based, human (hPD-1). The protocol:
as §1, §2
Mouse skin melanoma B16-F10 cell line was purchased from the American Type Culture Collection (ATCC) and cultured in RPMI 1640 medium (Biowest) supplemented with 10% fetal bovine serum (FBS, Biowest) and […] L-glutamine (Biowest). The generation of the B16-F10 cells overexpressing TCR-Activator (maAPCs) clone 3A5 was described in our previous work (Magiera-Mularz et al., 2021). […]
B16-F10/TCRAct cells (maAPCs) were seeded on 96-well white bottom plates at the density of 2,000 cells/well and treated with 20 ng/ml of mouse recombinant IFN-γ (Thermo Fisher Scientific) for 48 hours before the ICB assay. […] After 24 hours (37°C, 5% CO2) and 20 min of additional incubation with the luminescence reagent (Bio-Glo™ Luciferase Assay System, Promega) at room temperature, activation of Jurkat ECs was monitored by luminescence measurements on a Spark microplate reader (Tecan). […]

In the case of `Cc1cc(CN[C@H](CO)C(=O)O)c(OCc2cccc(C#N)c2)cc1OCc1cccc(-c2ccc3c(c2)OCCO3)c1C` [BMS-1001], in assay [1], the “specificity towards hPD-L1 / failure to target mouse PD-L1 (previous studies)” value is “specificity towards the hPD-L1 protein”.

With `Cc1c(COc2cc(OCc3cccc(C#N)c3)c(CN3C[C@H](O)C[C@@H]3C(=O)O)cc2Cl)cccc1-c1ccc2c(c1)OCCO2` [BMS-1166], the “specificity towards hPD-L1 / failure to target mouse PD-L1 (previous studies)” value in assay [1] was “specificity towards the hPD-L1 protein”.

As to “atezolizumab: therapeutic PD-L1-blocking monoclonal antibody (Selleckchem)”, the “blockade of hPD-1/hPD-L1, restored activation of Jurkat-ECs (in words)” value (from here on “blockade of hPD-1/hPD-L1”) in assay [2] is listed as “efficiently blocked the hPD-1/hPD-L1 immune checkpoint”. Besides, the EC50 in assay [2] (luciferase luminescence, 6-hour incubation (routinely), 37°C, 5% CO2, 0.1% DMSO (pAC65), Hill fit, 4–6 independent experiments, read-out: EC50, activation of Jurkat-ECs) was 0.14 nM. Also, in assay [3], the “blocking of both PD-L1/CD80 and PD-1/PD-L1 pathways” value (“blocking” for short) is “Blocking of both PD-L1/CD80 and PD-1/PD-L1 pathways has also been documented”.

In the case of “avelumab: therapeutic PD-L1-blocking monoclonal antibody (MedChemExpress)”, in assay [2], the “blockade of hPD-1/hPD-L1” value is given as “restored the activation of Jurkat-ECs blocked with either the hPD-L1-expressing or mPD-L1 expressing cells”. The “blockade of hPD-1/mPD-L1, restored activation of Jurkat-ECs (in words)” value in assay [4] was “restored the activation of Jurkat-ECs blocked with either the hPD-L1-expressing or mPD-L1 expressing cells”. Also, the “blocking” value in assay [3] is “Blocking of both PD-L1/CD80 and PD-1/PD-L1 pathways has also been documented”.

For “durvalumab: therapeutic PD-L1-blocking monoclonal antibody (Selleckchem)”, in assay [2], the “blockade of hPD-1/hPD-L1” value is “efficiently blocked the hPD-1/hPD-L1 immune checkpoint”. Also, the “blockade of hPD-1/mPD-L1, restored activation of Jurkat-ECs (in words)” value in assay [4] is reported as “atezolizumab but not durvalumab was able to block the hPD-1/mPD-L1 immune checkpoint”. In addition, the “blocking” value in assay [3] is “Blocking of both PD-L1/CD80 and PD-1/PD-L1 pathways has also been documented”.
